Measurements as given in paper PMC5435455 (ACS Chemical Biology, 2017).
Like-named read-outs stand apart in the source and are kept apart here.

Columns and labels:
[1] = molecular target: T1, Pisum sativum agglutinin (PSA, pea lectin) (Lathyrus oleraceus, UniProt P02867); experiment: ITC at […] K; type: binding
T1 sequence (P02867 31-217): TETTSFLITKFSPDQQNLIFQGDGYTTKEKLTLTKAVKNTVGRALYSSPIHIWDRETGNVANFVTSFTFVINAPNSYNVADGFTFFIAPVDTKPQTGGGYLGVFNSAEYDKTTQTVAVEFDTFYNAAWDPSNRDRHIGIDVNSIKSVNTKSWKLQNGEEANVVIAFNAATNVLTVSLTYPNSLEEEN
T1 sequence (P02867 218-275): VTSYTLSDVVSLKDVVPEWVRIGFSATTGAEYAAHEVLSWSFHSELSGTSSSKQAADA

[2] = molecular target: T1, Pisum sativum agglutinin (PSA, pea lectin); experiment: ITC at […] K; type: binding; remark: listed apart in the source

Structure (SMILES) | Kd [1] | Kd [2]
CO[C@H]1O[C@H](CO)[C@@H](O)[C@H](O)[C@@H]1O [compound 1, methyl α-D-mannopyranoside] | 806 ± 32 µM | –
OC[C@H]1O[C@H](OC[C@H]2O[C@H](O)[C@@H](O)[C@@H](O[C@H]3O[C@H](CO)[C@@H](O)[C@H](O)[C@@H]3O)[C@@H]2O)[C@@H](O)[C@@H](O)[C@@H]1O [compound 2, 3,6-di-O-(α-D-mannopyranosyl)-α-D-mannopyranose] | – | 621 ± 11 µM
